Source: patent publication EP0699074B1, “THROMBIN INHIBITORS” (Merck & Co., Inc., priority 1993, dated 1994)

Target: human α-thrombin (Homo sapiens, UniProt P00734)
Conditions: 4-4 (L at Acg center, later eluting HPLC peak) compared with its diastereomer 4-3 (D)
Experimental: Trypsin assays also contained 1 mM CaCl2.
Concentrations of stock solutions of Z-GPR-afc were determined from measurements of absorbance at 380 nm of the 7-amino-4-trifluoromethyl coumarin produced upon complete hydrolysis of an aliquot of the stock solution by thrombin.
Times required to achieve equilibration between enzyme and inhibitor were determined in control experiments. Initial velocities of product formation in the absence (Vo) or presence of inhibitor (Vi) were measured.

CNC(=O)C(=O)[C@@H](NC(=O)[C@@H]1CCCN1C(=O)[C@@H](Cc1ccccc1)NC)[C@H]1CC[C@H](N)CC1 [4-4, H-NMe-D-Phe-Pro-t-L-AcgΨ[COCO]-NHMe]
thrombin inhibitor potency (comparison of the two isomers): more potent thrombin inhibitor
